Data: ChEMBL document CHEMBL2150849, “Sesquiterpenoids from the mangrove-derived endophytic fungus Diaporthe sp” (J Nat Prod, 2012)
Calls of active or inactive are those of the source.

Assays:
Assay type in all cases: functional, cell-based
SGC-7901 = test: Cytotoxicity against human SGC7901 cells at 20 uM by MTT assay
MCF7 = test: Cytotoxicity against human MCF7 cells at 20 uM by MTT assay
A549 = test: Cytotoxicity against human A549 cells at 20 uM by MTT assay
QGY7701 = test: Cytotoxicity against human QGY7701 cells at 20 uM by MTT assay

Measured: Activity

CC1=C[C@@H]2C[C@H](C)C[C@H](C)[C@H]2[C@](C)(C(=O)CCO)[C@@H]1C(=O)O
inactive: all assays above

CC1=C(CO)[C@@]2(C)CCC[C@@](C)(CO)[C@@H]2CC1=O
inactive: all assays above

CC1=C(CO)[C@@]2(C)CC[C@H](O)C(C)(C)[C@@H]2CC1=O
inactive: all assays above

CC1=C(CO)[C@@]2(C)C[C@@H](O)CC(C)(C)[C@@H]2CC1=O
inactive: all assays above

CC1(C)CCC[C@]2(C)[C@@H](C(=O)O)[C@](C)(O)CC[C@@H]12
inactive: all assays above

CC1(C)[C@@H](O)CC[C@]2(C)C3=C(CC[C@@H]12)C(=O)OC3
inactive: all assays above

C[C@]1(CO)CCC[C@]2(C)[C@@H](CO)[C@](C)(O)CC[C@@H]12
inactive: all assays above

CC(C)(O)[C@]12CCC3=C(COC3=O)[C@@]1(C)CCC(=O)O2
inactive: all assays above

CC1(C)CC(=O)C[C@]2(C)[C@@H](CO)[C@](C)(O)CC[C@@H]12
inactive: all assays above

CC1(C)C(=O)CC[C@]2(C)[C@@H](CO)[C@](C)(O)CC[C@@]12O
inactive: all assays above

CC1=C(CO)[C@@]2(C)CCCC(C)(C)[C@@H]2C[C@H]1O
inactive: all assays above
